Experimental findings from US12084462B2, “Spiro bicyclic inhibitors of menin-MLL interaction” (Janssen Pharmaceutica NV, priority 2016, dated 2024) are described below.

One assay concerns MOLM14. In words: Proliferation assay (spheroid assay) MOLM14. The format is cell-based, human. On the procedure: (§1) The anti-proliferative effect of menin/MLL protein/protein interaction inhibitor test compounds was assessed in human leukemia cell lines. The cell lines MV-4-11 and MOLM14 harbor MLL translocations and express the MLL fusion proteins MLL-AF4 and MLL-AF9, respectively, as well as the wildtype protein from the second allele. […] K562 and KG1 were used as a control cell lines containing two MLL wildtype alleles in order to exclude compounds that display general cytotoxic effects.
(§2) MV-4-11 and MOLM14 were cultured in RPMI-1640 (Sigma Aldrich) supplemented with 10% fetal bovine serum (HyClone), 2 mM L-glutamine (Sigma Aldrich) and 50 μg/ml gentamycin (Gibco). K562 were propagated in RPMI-1640 (Sigma Aldrich) supplemented with 20% fetal bovine serum (HyClone), 2 mM L-glutamine (Sigma Aldrich) and 50 μg/ml gentamycin (Gibco). KG1 were cultured in Iscove's MDM (Gibco) supplemented with 20% fetal bovine serum (HyClone), 2 mM L-glutamine (Sigma Aldrich) and 50 μg/ml gentamycin (Gibco).
(§3) In order to assess the anti-proliferative effects, 1,500 MV-4-11, 300 MOLM14, 750 K562 or 1,300 KG1 cells were seeded in 200 μl media per well in 96-well round bottom, ultra-low attachment plates (Costar, catalogue number 7007). Cell seeding numbers were chosen based on growth curves to ensure linear growth throughout the experiment. Test compounds were added at different concentrations and the DMSO content was normalized to 0.3%. Cells were incubated for 8 d at 37° C. and 5% CO2. Spheroid like growth was monitored in real-time by live-cell imaging (IncuCyteZOOM, Essenbio, 4× objective) acquiring one image every four hours for 8 d. Confluence (%) as a measure of spheroid size was determined using an integrated analysis tool.
(§4) In order to determine the cumulative effect of the test compounds over time, the area under the curve (AUC) in a plot of confluence against time was calculated. Confluence at the beginning of the experiment (t=0) was used as baseline for the AUC calculation.
(§5) Absolute IC50 values were calculated according to the following procedure: % Control=(AUC sample/AUC control)*100 AUC control=mean AUC of control values (cells without compound/DMSO as vehicle control)
(§6) A non-linear curve fit was applied using the least squares (ordinary) fit method to the plot of % control versus compound concentration. Based on this, the absolute IC50 value (half maximal inhibitory concentration of the test compound causing an anti-proliferative effect of 50% relative to the vehicle control) was calculated.

For another assay, the system named is MV-4-11. The experiment in a line: Proliferation assay (spheroid assay) MV-4-11. It counts as cell-based, human. The conditions noted are these: Homo sapiens, MV4-11, MV-4-11; averaged values; read-out: Spheroid assay MV-4-11 (IC50 (μM)). The protocol:
as §1, §2, §3, §4, §5, §6

The next assay concerns the target T1, menin (Homo sapiens, UniProt O00255, T541A).
T1 sequence (O00255 with tags, fused parts or gaps T541A): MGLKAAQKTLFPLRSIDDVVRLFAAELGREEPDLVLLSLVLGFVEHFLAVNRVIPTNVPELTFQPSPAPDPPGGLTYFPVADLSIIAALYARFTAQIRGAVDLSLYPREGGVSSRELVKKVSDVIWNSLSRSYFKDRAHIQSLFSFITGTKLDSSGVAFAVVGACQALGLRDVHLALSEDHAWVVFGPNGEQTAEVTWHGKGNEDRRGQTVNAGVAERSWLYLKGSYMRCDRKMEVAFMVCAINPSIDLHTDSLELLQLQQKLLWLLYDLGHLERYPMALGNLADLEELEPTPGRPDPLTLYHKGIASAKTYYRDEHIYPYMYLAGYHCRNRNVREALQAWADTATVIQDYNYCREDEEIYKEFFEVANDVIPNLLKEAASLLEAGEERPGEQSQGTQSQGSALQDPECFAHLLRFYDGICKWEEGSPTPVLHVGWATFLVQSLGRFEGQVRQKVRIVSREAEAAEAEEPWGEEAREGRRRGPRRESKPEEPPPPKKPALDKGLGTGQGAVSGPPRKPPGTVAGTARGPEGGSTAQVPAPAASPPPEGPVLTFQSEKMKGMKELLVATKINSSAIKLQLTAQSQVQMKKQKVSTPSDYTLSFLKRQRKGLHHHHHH
The experiment in a line: Menin/MLL fluorescence polarization (FP) assay. It counts as binding. On the procedure: 1) Menin/MLL Fluorescence Polarization Assay
To a non-surface binding, black 384-well microtiter plate was added 50 nL 160× test compound in DMSO and 4 μL 2× menin in assay buffer (40 mM Tris·HCl, pH 7.5, 50 mM NaCl, 1 mM DTT and 0.001% Tween 20). After incubation of test compound and menin for 10 min at ambient temperature, 4 μL 2×FITC-MBM1 peptide (FITC-β-alanine-SARWRFPARPGT-NH2 (SEQ ID NO: 2)) in assay buffer was added, the microtiter plate centrifuged at 1000 rpm for 1 min and the assay mixtures incubated for 15 min at ambient temperature. The relative amount of menin·FITC-MBM1 complex present in an assay mixture is determined by measuring the fluorescence polarization (FP) of the FITC label with a BMG Pherastar plate reader (ex. 485 nm/em. 520 nm) at ambient temperature. The final concentrations of reagents in the binding assay are 100 nM menin, 5 nM FITC-MBM1 peptide and 0.625% DMSO in assay buffer. Dose-response titrations of test compounds are conducted using an 11 point, three-fold serial dilution scheme, starting at 31 μM.
Compound potencies were determined by first calculating % inhibition at each compound concentration according to equation 1: % inhibition=((HC−LC)−(FP^compound−LC))/(HC−LC))*100 (Eqn 1)
Where LC and HC are the FP values of the assay in the presence or absence of a saturating concentration of a compound that competes with FITC-MBM1 for binding to menin, and FP^compound is the measured FP value in the presence of the test compound. HC and LC FP values represent an average of at least 16 replicates per plate. […] 2) Proliferation Assay
Background: Fluorescence polarisation rises when a labelled molecule tumbles more slowly, as on binding a larger partner.

Where [1] appears, read: Homo sapiens, MOLM-14, MOLM14, averaged values, read-out: Spheroid assay MOLM14 (IC50 (μM)).
The mark [2] stands for this setting: averaged values over all measurements, read-out: Menin FP assay (IC50 (μM)).

Molecules are shown by their SMILES. Where “and” joins values, the source holds several entries; their conditions need not be identical. Identical values can stand only once. Like-named read-outs stand apart in the source and are kept apart here. Some results are limits rather than exact numbers.

The term IC50 denotes the midpoint of a concentration-inhibition curve.

In the case of `Cn1cc2c(n1)CCCC2N1CC2(CCN(c3ncnc4sc(CC(F)(F)F)cc34)C2)C1` (single isomer, unassigned) [Compound 138], the IC50 in the assay on MOLM14 (Homo sapiens, MOLM-14, 192 h, MOLM14 (MLL-AF9), 8 d, absolute IC50 from AUC of confluence, individual measurements (not averaged), read-out: (2) Spheroid assay MOLM14 (IC50 (μM))) came out at 7 µM. Turning to `Cn1cc(CN2CC3(CCN(c4ncnc5sc(CC(F)(F)F)cc45)C3)C2)cn1` [Compound 30], the IC50 is over 15 µM in the assay with MOLM14 (setting [1]), 9.2 µM in the assay with MV-4-11 and 0.53 µM at menin (setting [2]). On to `FC(F)(F)Cc1cc2c(N3CCC4(CN(Cc5cncnc5)C4)C3)ncnc2s1` [Compound 10], for which, on menin (setting [2]), the IC50 amounted to 2.31 µM. For the compound `O=C([C@@H]1C[C@@H](F)CN1)N1CC2(C1)CN(c1ncnc3sc(CC(F)(F)F)cc13)C2` [Compound 89], the IC50 in the assay on MOLM14 (setting [1]) worked out at 10.5 µM; with MV-4-11, 1.3 µM; at menin (setting [2]), 0.045 µM. As to `CC(C)n1cc(CN2CC3(CCN(c4ncnc5sc(CC(F)(F)F)cc45)C3)C2)cn1` [Compound 36], the concentration for half-maximal inhibition (IC50) at menin (setting [2]) was 0.4 µM. As to `Cc1ccc(CN2CC[C@]3(CCN(c4ncnc5sc(CC(F)(F)F)cc45)C3)C2)cc1` (single isomer, unassigned) [Compound 290], the IC50 with MOLM14 (setting [1]) was 1.2 µM; in the assay on MV-4-11, 0.47 µM.

Consider `FC(F)(F)Cc1cc2c(N3CCC4(CN(Cc5cncc(Cl)n5)C4)C3)ncnc2s1` [Compound 11], for which the IC50 on menin (setting [2]) came to 0.76 µM. The same measure, in the same setting: then `Cn1cc(C(CN)N2CC3(CCN(c4ncnc5sc(CC(F)(F)F)cc45)C3)C2)cn1` (stereo not shown) [Compound 195], with 1.07 µM; and `FC(F)(F)Cc1cc2c(N3CC4(CN(Cc5cn[nH]c5)C4)C3)ncnc2s1` [Compound 40], with 0.84 µM.

Turning to `FC(F)(F)Cc1cc2c(N3CC4(CN(Cc5ccccc5)C4)C3)ncnc2s1` [Compound 14], the figures for the IC50 in the assay on MOLM14 (setting [1]), in the assay on MV-4-11 and on menin (setting [2]) were 4.9 µM, 2.2 µM and 0.11 µM, respectively. On to `[CH3][Ge]([CH3])([CH3])[CH2]N1CC2(CCN(c3ncnc4sc(CC(F)(F)F)cc34)C2)C1` [Compound 31], for which, on menin (setting [2]), the IC50 was found to be 0.087 µM. Turning to `CC(C)[C@@H](C1CNC1)N1CC2(CCN(c3ncnc4sc(CC(F)(F)F)cc34)C2)C1` [Compound 200], the results for the IC50 in the assay on MOLM14 (setting [1]), with MV-4-11 and on menin (setting [2]) were 10.3 µM, 3.4 µM and 0.11 µM, respectively.

As to `O=C(NCCO)C(c1ccccc1)N1CC2(CCN(c3ncnc4sc(CC(F)(F)F)cc34)C2)C1` (stereo not shown) [Compound 75], the IC50 at menin (setting [2]) was found to be 2.36 µM. For `CC(C1CCOCC1)N1CC2(CCN(c3ncnc4sc(CC(F)(F)F)cc34)C2)C1` (stereo not shown) [Compound 145], the IC50 worked out at 7.3 µM with MOLM14 (setting [1]) and 1.7 µM with MV-4-11. On to `CC(C)CN1CC2(C1)CN(c1ncnc3sc(CC(F)(F)F)cc13)C2` [Compound 44], for which the IC50 with MOLM14 (setting [1]) was over 15 µM; in the assay on MV-4-11, 4.1 µM. As to `FC(F)(F)Cc1cc2c(N3CC4(CC(OCc5ccccc5)C4)C3)ncnc2s1` [Compound 26], the IC50 in the assay with MOLM14 (setting [1]) was over 15 µM; in the assay with MV-4-11 it was 10.4 µM; at menin (setting [2]), 0.16 µM. The like results for `NCCCOc1cccc(CN2CC3(CCN(c4ncnc5sc(CC(F)(F)F)cc45)C3)C2)c1` [Compound 37] were, in that order, 3.1 µM, 1.5 µM and 0.17 µM. Regarding `Cn1ccc(CN2CC3(CCN(c4ncnc5sc(CC(F)(F)F)cc45)C3)C2)n1` [Compound 35], at menin (setting [2]), the IC50 came to 0.99 µM. Take `Cn1cc([C@@H](C2CCNCC2)N2CC3(CCN(c4ncnc5sc(CC(F)(F)F)cc45)C3)C2)cn1` [Compound 201]: the IC50 in the assay on MOLM14 (setting [1]) was over 15 µM; with MV-4-11, 12.7 µM. As to `Cn1cc(CN2CC3(C2)CN(c2ncnc4sc(CC(F)(F)F)cc24)C3)cn1` [Compound 28], the IC50 in the assay on MOLM14 (MOLM14 (MLL-AF9), 8 d, absolute IC50 from AUC of confluence, individual measurements (not averaged), read-out: (2) Spheroid assay MOLM14 (IC50 (μM))) was 3.2 µM and > 15 µM; at menin (100 nM menin, 5 nM FITC-MBM1 peptide, individual measurements (not averaged), read-out: (1) Menin FP assay (IC50 (μM))), 0.517 µM. Take `FC(F)(F)Cc1cc2c(N3CCC4(CN(Cc5ccncn5)C4)C3)ncnc2s1` [Compound 9]: the IC50 on menin (setting [2]) is 0.84 µM. Consider `CCN1CC(C(C(C)C)N2CC3(CCN(c4ncnc5sc(CC(F)(F)F)cc45)C3)C2)C1` (stereo not shown) [Compound 303], for which the results for the IC50 in the assay with MOLM14 (setting [1]) and in the assay with MV-4-11 were 1.02 µM and 0.32 µM, respectively. Turning to `Cn1ccc(CN2CC3(C2)CN(c2ncnc4sc(CC(F)(F)F)cc24)C3)n1` [Compound 34], the half-inhibitory concentration (IC50) at menin (setting [2]) turned out to be 0.72 µM. As for `FC(F)(F)Cc1cc2c(N3CC4(CN(Cc5cc[nH]n5)C4)C3)ncnc2s1` [Compound 41], the half-maximal inhibitory concentration (IC50) at menin (setting [2]) came to 0.63 µM. Turning to `OCc1ccccc1CN1CC2(CCN(c3ncnc4sc(CC(F)(F)F)cc34)C2)C1` [Compound 57], the IC50 with MOLM14 (setting [1]) came to 8.6 µM; with MV-4-11 it was 4.2 µM. For `FC(F)(F)Cc1cc2c(N3CCC4(CN(Cc5ccnnc5)C4)C3)ncnc2s1` [Compound 4], at menin (setting [2]), the IC50 is 0.73 µM. As for `Cn1cncc1CN1CC2(CCN(c3ncnc4sc(CC(F)(F)F)cc34)C2)C1` [Compound 23], the IC50 on menin (setting [2]) was 0.95 µM. Regarding `Cn1cc2c(n1)CCCC2N1CC2(CCN(c3ncnc4sc(CC(F)(F)F)cc34)C2)C1` (single isomer, unassigned) [Compound 137], the IC50 was over 15 µM in the assay on MOLM14 (setting [1]) and 10.1 µM with MV-4-11. For `Cn1cc(CN2CC[C@@]3(CCN(c4ncnc5sc(CC(F)(F)F)cc45)C3)C2)cn1` (single isomer, unassigned) [Compound 295], the IC50 is 6.7 µM with MOLM14 (setting [1]) and 1.16 µM in the assay on MV-4-11. For the compound `FC(F)(F)Cc1cc2c(N3CCC4(CN(Cc5cnc6ccccn56)C4)C3)ncnc2s1` [Compound 7], the IC50 on menin (setting [2]) was determined as 0.73 µM.

Take `Cc1ccc(CN2CC[C@@]3(CCN(c4ncnc5sc(CC(F)(F)F)cc45)C3)C2)cc1` (single isomer, unassigned) [Compound 289]: the IC50 in the assay with MOLM14 (setting [1]) is 1.3 µM; in the assay on MV-4-11, 0.21 µM. Consider `Cc1nc(N2CCCC3(CCN(Cc4ccccc4)C3)C2)c2cc(CC(F)(F)F)sc2n1` (stereo not shown) [Compound 19], for which the IC50 at menin (setting [2]) was found to be 0.81 µM. `FC(F)(F)Cc1cc2c(N3CCC4(CN(Cc5cnc(Cl)cn5)C4)C3)ncnc2s1` [Compound 8]: on menin (setting [2]), the IC50 was 0.79 µM.
